Where only a bound is given, the exact number is not on record here.

The source of these data is ChEMBL document CHEMBL3120141, “Discovery of (1R,6S)-5-[4-(1-cyclobutyl-piperidin-4-yloxy)-phenyl]-3,4-diaza-bicyclo[4.1.0]hept-4-en-2-one (R,S-4a): histamine H(3) receptor inverse agonist demonstrating potent cognitive enhancing and wake promoting activity” (Bioorg Med Chem Lett, 2014).

The test system of series [1] is Liver microsome. Kind of series: Metabolic stability in rat liver microsomes. The format is ADME. In general terms: Microsomes from liver hold many membrane-bound enzymes, among them those of drug oxidation.
The next series concerns the target Cytochrome P450 3A4 (Homo sapiens, UniProt P08684). Kind of series: Inhibition of CYP3A4 (unknown origin). The note with it: human. The format is ADME.
Series [2] deals with Liver microsome. Kind of series: Metabolic stability in human liver microsomes. The format is ADME.
For series [3], the target named is Histamine H3 receptor (Homo sapiens, UniProt Q9Y5N1). Kind of series: Displacement of [3H]NAMH from human histamine H3 receptor transfected in CHO cells. The format is cell-based. (In a radioligand displacement assay an active substance lowers the binding of a labelled ligand.)
Series [4] in a line: Metabolic stability in mouse liver microsomes. The format is ADME, Microsome.
The next series deals with Cytochrome P450 2C9 (Homo sapiens, UniProt P11712). Kind of series: Inhibition of CYP2C9 (unknown origin). The format is ADME. The conditions noted are these: human.
Series [5] is filed under the species Homo sapiens. Kind of series: Selectivity ratio for human histamine H3 receptor over human histamine H1 receptor.
Another series has as its target Cytochrome P450 2D6 (Homo sapiens, UniProt P10635). Kind of series: Inhibition of CYP2D6 (unknown origin). The note with it: human. The format is ADME.
Series [6] is filed under the species Homo sapiens. Kind of series: Selectivity ratio for human histamine H3 receptor over human histamine H2 receptor.
Series [7] has as its system Liver microsome. Kind of series: Metabolic stability in dog liver microsomes. The format is ADME, Canis lupus familiaris.
Series [8] deals with Histamine H3 receptor (Rattus norvegicus, UniProt Q9QYN8). Kind of series: Displacement of [3H]NAMH from rat histamine H3 receptor transfected in CHO cells. The format is cell-based.
For a further series, the target named is T1, Cytochrome P450 1A2 (Homo sapiens, UniProt P05177).
T1 sequence (P05177 whole entry): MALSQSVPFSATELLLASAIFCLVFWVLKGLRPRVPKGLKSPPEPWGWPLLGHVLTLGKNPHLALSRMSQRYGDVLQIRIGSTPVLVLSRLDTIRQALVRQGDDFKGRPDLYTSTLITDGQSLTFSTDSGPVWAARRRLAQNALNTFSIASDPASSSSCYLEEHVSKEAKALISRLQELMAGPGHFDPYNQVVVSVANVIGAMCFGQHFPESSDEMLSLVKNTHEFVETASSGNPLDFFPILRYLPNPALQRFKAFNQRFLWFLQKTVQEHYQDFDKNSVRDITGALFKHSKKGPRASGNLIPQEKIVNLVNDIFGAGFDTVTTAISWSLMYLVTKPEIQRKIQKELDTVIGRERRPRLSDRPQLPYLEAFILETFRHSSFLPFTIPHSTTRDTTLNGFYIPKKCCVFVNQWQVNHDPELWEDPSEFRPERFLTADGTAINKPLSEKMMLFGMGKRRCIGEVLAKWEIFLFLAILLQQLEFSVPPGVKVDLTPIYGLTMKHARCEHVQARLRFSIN
Kind of series: Inhibition of CYP1A2 (unknown origin). The format is ADME. The note with it: human.

The species entered for series [9] is Homo sapiens. Kind of series: Selectivity ratio for human histamine H3 receptor over human histamine H4 receptor.
For another series, the target named is Cytochrome P450 2C19 (Homo sapiens, UniProt P33261). Kind of series: Inhibition of CYP2C19 (unknown origin). The format is ADME. The conditions noted are these: human.
Sequence of Cytochrome P450 2C19 (P33261 whole entry): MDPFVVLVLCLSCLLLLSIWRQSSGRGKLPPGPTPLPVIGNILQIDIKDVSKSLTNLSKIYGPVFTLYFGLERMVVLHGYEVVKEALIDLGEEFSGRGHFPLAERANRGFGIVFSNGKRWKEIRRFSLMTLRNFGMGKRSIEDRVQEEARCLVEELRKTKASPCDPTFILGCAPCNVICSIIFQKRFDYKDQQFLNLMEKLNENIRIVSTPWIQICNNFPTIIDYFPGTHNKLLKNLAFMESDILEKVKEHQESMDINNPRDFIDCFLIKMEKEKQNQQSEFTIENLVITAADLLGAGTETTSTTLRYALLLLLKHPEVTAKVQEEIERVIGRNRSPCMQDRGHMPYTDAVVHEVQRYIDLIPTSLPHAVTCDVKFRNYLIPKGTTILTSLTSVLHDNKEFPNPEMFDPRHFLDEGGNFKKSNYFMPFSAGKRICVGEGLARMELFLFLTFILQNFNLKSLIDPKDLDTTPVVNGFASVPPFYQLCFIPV

Sequence of Histamine H3 receptor (Rattus norvegicus, UniProt Q9QYN8) (Q9QYN8 whole entry): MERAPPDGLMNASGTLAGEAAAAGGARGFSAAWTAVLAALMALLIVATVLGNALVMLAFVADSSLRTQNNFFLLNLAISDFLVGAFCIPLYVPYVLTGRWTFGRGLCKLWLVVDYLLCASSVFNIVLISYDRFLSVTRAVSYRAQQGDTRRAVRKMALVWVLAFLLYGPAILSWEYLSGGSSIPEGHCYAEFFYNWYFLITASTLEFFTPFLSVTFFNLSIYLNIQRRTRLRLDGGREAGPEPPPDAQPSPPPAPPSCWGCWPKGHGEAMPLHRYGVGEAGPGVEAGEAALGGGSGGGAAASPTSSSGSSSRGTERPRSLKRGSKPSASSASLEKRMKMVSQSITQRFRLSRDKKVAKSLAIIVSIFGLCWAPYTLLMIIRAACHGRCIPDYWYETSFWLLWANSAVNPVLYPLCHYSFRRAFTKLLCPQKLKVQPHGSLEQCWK
Sequence of Histamine H3 receptor (Homo sapiens, UniProt Q9Y5N1) (Q9Y5N1 whole entry): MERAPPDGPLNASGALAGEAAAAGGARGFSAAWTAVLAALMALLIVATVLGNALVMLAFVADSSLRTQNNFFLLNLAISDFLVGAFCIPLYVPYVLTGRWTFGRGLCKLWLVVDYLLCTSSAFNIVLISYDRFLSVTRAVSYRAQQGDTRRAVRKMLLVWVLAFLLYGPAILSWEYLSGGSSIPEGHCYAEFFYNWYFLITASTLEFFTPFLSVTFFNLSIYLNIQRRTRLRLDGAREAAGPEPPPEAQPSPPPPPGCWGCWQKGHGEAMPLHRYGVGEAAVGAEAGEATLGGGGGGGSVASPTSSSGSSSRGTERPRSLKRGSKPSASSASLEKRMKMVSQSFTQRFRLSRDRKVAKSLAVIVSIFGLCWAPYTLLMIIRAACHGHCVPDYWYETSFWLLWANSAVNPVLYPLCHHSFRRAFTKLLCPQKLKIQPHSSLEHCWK
Sequence of Cytochrome P450 2D6 (P10635 whole entry): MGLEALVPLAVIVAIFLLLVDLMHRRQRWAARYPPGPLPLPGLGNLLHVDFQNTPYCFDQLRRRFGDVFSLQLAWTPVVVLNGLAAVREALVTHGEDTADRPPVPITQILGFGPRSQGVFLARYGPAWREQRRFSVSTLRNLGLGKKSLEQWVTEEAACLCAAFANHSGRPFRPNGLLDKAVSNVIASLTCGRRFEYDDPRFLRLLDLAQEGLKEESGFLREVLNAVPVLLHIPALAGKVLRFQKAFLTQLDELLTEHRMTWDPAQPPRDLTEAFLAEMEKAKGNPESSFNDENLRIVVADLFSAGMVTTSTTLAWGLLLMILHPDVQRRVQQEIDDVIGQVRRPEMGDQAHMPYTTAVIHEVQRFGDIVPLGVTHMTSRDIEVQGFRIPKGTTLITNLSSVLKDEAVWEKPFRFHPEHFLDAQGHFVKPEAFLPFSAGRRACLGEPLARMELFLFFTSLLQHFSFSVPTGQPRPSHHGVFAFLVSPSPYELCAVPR
Sequence of Cytochrome P450 2C9 (P11712 whole entry): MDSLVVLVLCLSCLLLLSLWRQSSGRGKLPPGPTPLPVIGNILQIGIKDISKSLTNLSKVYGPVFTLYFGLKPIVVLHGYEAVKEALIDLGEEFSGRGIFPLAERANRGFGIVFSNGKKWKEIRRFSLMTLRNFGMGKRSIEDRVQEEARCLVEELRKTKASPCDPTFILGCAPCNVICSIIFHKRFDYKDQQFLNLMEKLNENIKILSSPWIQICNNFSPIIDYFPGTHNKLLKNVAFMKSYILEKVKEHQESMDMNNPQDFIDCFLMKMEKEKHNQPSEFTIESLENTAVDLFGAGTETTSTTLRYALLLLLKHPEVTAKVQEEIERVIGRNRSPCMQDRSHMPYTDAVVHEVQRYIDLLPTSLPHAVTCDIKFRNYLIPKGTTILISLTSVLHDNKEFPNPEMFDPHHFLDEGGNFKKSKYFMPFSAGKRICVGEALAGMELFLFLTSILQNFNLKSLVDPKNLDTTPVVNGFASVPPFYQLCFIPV
Sequence of Cytochrome P450 3A4 (P08684 whole entry): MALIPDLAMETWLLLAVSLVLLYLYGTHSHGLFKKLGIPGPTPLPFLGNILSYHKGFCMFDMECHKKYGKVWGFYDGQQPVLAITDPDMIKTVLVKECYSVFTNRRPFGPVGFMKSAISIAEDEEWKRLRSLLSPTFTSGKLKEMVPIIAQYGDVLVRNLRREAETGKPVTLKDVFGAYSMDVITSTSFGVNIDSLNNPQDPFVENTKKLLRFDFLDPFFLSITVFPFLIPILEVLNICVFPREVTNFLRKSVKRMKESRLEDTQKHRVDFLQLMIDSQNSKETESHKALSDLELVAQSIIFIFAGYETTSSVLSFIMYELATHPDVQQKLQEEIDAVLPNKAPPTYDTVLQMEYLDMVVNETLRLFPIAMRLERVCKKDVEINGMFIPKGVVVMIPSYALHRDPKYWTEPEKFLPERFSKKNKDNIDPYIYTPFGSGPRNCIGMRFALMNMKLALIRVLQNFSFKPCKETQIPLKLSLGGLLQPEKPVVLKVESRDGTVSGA

Regarding `CC(C)N1CCC(Oc2ccc(C3=NNC(=O)C4CC34)cc2)CC1` (racemic), the Stability result (in the series on Liver microsome [1]; with Liver microsome [2]; in series [4]; in the series on Liver microsome [7]) was “Stable” each time. Moreover, the “inhibition (INH)” value against Cytochrome P450 3A4, against Cytochrome P450 2C9, against Cytochrome P450 2D6, against Cytochrome P450 1A2 and against Cytochrome P450 2C19 was “Not Active” throughout. For the same compound, the results for the Ki at Histamine H3 receptor [3] and at Histamine H3 receptor [8] were 9.1 nM and 51 nM, respectively. Besides, the Selectivity ratio in the series listed under Homo sapiens [5], in the series listed under Homo sapiens [6] and in the series filed under Homo sapiens [9] was over 1000 in each case.

`CN1N=C(c2ccc(OC3CCN(C4CCCC4)CC3)cc2)C2CC2C1=O` (racemic): the Ki (as a rule, a measure of affinity in units of concentration, obtained from inhibition or displacement) on Histamine H3 receptor [3] was determined as 3.6 nM; on Histamine H3 receptor [8] it was 5.7 nM. Also, the Selectivity ratio in the series listed under Homo sapiens [5], in the series filed under Homo sapiens [6] and in the series listed under Homo sapiens [9] was over 1000 throughout.

As for `CCN1N=C(c2ccc(OC3CCN(C4CCC4)CC3)cc2)C2CC2C1=O` (racemic), the inhibition constant (Ki) on Histamine H3 receptor [3] was 4.5 nM; on Histamine H3 receptor [8], 8 nM. Moreover, the Selectivity ratio in the series listed under Homo sapiens [5], in the series filed under Homo sapiens [6] and in the series filed under Homo sapiens [9] was over 1000 each time.

In the case of `CC(C)N1CCC(Oc2ccc(C3=NN(C)C(=O)C4CC34)cc2)CC1` (racemic), the values for the Ki at Histamine H3 receptor [3] and on Histamine H3 receptor [8] were 4 nM and 17 nM, respectively. Besides, the Selectivity ratio in the series listed under Homo sapiens [5], in the series filed under Homo sapiens [6] and in the series filed under Homo sapiens [9] was over 1000 each time.

On to `O=C1NN=C(c2ccc(OC3CCN(C4CCCC4)CC3)cc2)C2CC12` (racemic), for which the Stability entry (in the series with Liver microsome [1]; in the series with Liver microsome [2]; in series [4]; in the series with Liver microsome [7]) was “Stable” throughout. Moreover, the “inhibition (INH)” value against Cytochrome P450 3A4, on Cytochrome P450 2C9, on Cytochrome P450 2D6, against Cytochrome P450 1A2 and on Cytochrome P450 2C19 was “Not Active” in each case. Besides, the inhibitory constant (Ki) at Histamine H3 receptor [3] was 3.7 nM; at Histamine H3 receptor [8] it was 8.1 nM. For the same compound, the Selectivity ratio in the series listed under Homo sapiens [5], in the series filed under Homo sapiens [6] and in the series filed under Homo sapiens [9] was over 1000 in each case.

For `O=C1C2CC2C(c2ccc(OC3CCN(C4CCC4)CC3)cc2)=NN1c1ccc(F)cc1` (racemic), the inhibitory constant (Ki) was found to be 3.5 nM at Histamine H3 receptor [3] and 6.7 nM at Histamine H3 receptor [8]. The Selectivity ratio in the series listed under Homo sapiens [5], in the series listed under Homo sapiens [6] and in the series filed under Homo sapiens [9] was over 1000 each time.

Regarding `CC(C)N1N=C(c2ccc(OC3CCN(C4CCC4)CC3)cc2)C2CC2C1=O` (racemic), the Ki amounted to 6.9 nM at Histamine H3 receptor [3] and 5.6 nM on Histamine H3 receptor [8]. Moreover, the Selectivity ratio in the series filed under Homo sapiens [5], in the series listed under Homo sapiens [6] and in the series filed under Homo sapiens [9] was over 1000 throughout.

For the compound `O=C1NN=C(c2ccc(OC3CCN(C4CCC4)CC3)cc2)C2CC12` (racemic), the inhibitory constant (Ki) on Histamine H3 receptor [3] amounted to 4.7 nM; at Histamine H3 receptor [8], 8.4 nM.

For the compound `CCN1CCC(Oc2ccc(C3=NNC(=O)C4CC34)cc2)CC1` (racemic), the inhibition constant (Ki) at Histamine H3 receptor [3] came to 173 nM; on Histamine H3 receptor [8], 228 nM.
